Where “and” joins values, the source holds several entries; their conditions need not be identical. Equal entries are not always repeated. Where two headings read alike, the source gives them in different places.
Assays:
CYP1A1 mRNA = CYP1A1 mRNA (qRT-PCR) in wild-type and AhR-knockout HT-29 cells; format: cell-based, human
Procedure: Figure 4 Effects of MICT on the induction of CYP1A1 mRNA in human hepatic and intestinal cells. Cultured cells were incubated for 24 h with the vehicle (DMSO; 0.1% v/v) and tested MICT in the presence or absence of TCDD (10 nM). RT-PCR determined the level of CYP1A1 mRNA, and the data were normalized per GAPDH mRNA level. […] (A,B) Experiments in three consecutive passages of human colon adenocarcinoma cell line LS180 in the absence (A) and the presence (B) of 10 nM TCDD. The bar graphs show the percentage of maximal induction attained by TCDD and are expressed as the mean ± SD. (C) Experiments in three consecutive passages of wild-type (AhR^+/^+) and AhR-knockout (AhR^−/^−) HT-29 cells. […] (D) Primary human hepatocytes from three different donors (LH79, Hep2201020, and Hep2201021).
CRISPR/Cas9 knockout of the AhR in HT-29 cells: A CRISPR/Cas9 expression vector with GFP, pSpCas9(BB)-2A-GFP (PX458) (#48138; Addgene, Cambridge, MA, USA) was used for integration of the gRNA complementary to exon 2 of the AHR gene. 4 × 10^5 cells were seeded in a 6-well plate and transfected (at 60–70% confluence) with a mixture of vector DNA and Lipofectamine™ 3000 (Life Technologies) according to the manufacturer’s instructions. The transfected cells positive for GFP signal were sorted using BD Aria II Sorp (Becton Dickinson, Franklin Lakes, NJ, USA), in a single cell suspension into a 96-well plate. DNA isolation was performed by a QIAamp DNA Mini Kit (Qiagen, Hilden, Germany) according to the manufacturer’s instructions. The function of the CRISPR/Cas9 system was verified by the SURVEYOR mutation detection kit (Integrated DNA Technologies, Leuven, Belgium) according to the manufacturer’s instructions. The positive clones were checked for AhR expression by Western Blotting. PCR amplification products were purified using the QIAquick PCR Purification Kit (Qiagen) and integrated into a plasmid vector (pGEM_T Easy Vector Systems, Promega), and E.coli DHP α (MAX Efficiency DH5a Competent Cells, Thermo Fisher; Waltham, MA, USA) were transformed according to manufacturer’s instructions, DNA was isolated, and deletions in the AhR gene sequences were verified by sequencing (Mix2seq, Eurofins Genomic, Luxembourg).
Total RNA was isolated using TRI Reagent® (Sigma Aldrich, Prague, Czech Republic). cDNA was synthesized using M-MuLV reverse transcriptase (New England Biolabs, Ipswich, MA, USA). The reverse transcription was performed at 42 °C for 60 min using Random Primers 6 (New England Biolabs, Ipswich, MA, USA) and diluted in a 1:4 ratio by PCR-grade water. The quantitative reverse transcriptase-polymerase chain reaction (qRT-PCR) was performed on the Lightcycler 480 II using the LightCycler ® 480 Probes Master (Roche Diagnostic Corporation, Prague, Czech Republic). The levels of CYP1A1 and GAPDH mRNAs were determined using the Universal Probe Library probes (UPL; Roche Diagnostic Corporation, Prague, Czech Republic) in combination with specific primers, using a protocol described elsewhere. All measurements were performed in triplicates, and the gene expression was normalized to glyceraldehyde-3-phosphate dehydrogenase (GAPDH) as a house-keeping gene. The data were processed using the delta-delta Ct method and expressed as a fold induction over the negative control (DMSO) or as a percentage of the positive control (maximal induction by TCDD).

AhR = molecular target: T1, AhR (Homo sapiens, UniProt P35869); assay: Reporter gene assay in AZ-AHR cells, agonist analyses (luciferase)
T1 sequence (P35869 11-848): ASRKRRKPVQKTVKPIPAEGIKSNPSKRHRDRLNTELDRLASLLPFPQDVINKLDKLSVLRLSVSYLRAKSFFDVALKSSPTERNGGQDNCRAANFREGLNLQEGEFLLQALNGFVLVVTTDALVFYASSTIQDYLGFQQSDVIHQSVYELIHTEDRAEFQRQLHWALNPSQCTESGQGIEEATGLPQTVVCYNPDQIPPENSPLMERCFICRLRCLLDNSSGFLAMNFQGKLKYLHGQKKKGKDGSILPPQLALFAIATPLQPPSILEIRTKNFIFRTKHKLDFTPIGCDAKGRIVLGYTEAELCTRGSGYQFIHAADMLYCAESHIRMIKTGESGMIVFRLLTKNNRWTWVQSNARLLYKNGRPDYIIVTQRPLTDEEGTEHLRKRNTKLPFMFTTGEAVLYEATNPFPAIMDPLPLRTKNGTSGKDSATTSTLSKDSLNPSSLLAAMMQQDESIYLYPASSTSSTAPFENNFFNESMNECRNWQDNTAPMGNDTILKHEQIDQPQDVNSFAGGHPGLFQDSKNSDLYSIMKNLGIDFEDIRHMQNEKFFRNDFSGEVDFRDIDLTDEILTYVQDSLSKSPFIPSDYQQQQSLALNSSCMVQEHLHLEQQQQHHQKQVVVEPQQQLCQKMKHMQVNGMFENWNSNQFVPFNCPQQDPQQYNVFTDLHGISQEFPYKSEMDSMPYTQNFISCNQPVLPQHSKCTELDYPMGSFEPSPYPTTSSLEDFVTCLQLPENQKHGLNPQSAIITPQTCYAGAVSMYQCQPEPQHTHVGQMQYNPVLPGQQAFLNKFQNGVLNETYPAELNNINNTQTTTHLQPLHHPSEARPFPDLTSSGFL
Procedure: In the first series of experiments, we evaluated the agonistic and antagonistic effects of MICT on the AhR activation. […] The antagonistic effects of MICT were evaluated against typical full agonists of the AhR, comprising TCDD, BaP, and FICZ, which were applied at fixed concentrations corresponding to their EC80.
Following the treatments, we lysed cells, and luciferase activity was measured. Experiments were performed at least in four consecutive cell passages. Incubations were performed in quadruplicates (technical replicates). In agonist analyses, the data from a representative experiment, expressed as a fold induction of luciferase activity over control cells, are shown. In antagonist analyses, the data are a percentage of maximal induction, and they are the mean ± SD.
Then, cells were lysed, and luciferase activity was measured using the Tecan Infinite M200 plate luminometer (Schoeller Instruments, Czech Republic). The experiments were performed in at least four consecutive cell passages, and the treatments were in quadruplicates (technical replicates). The values of half-maximal effective concentration (EC50) for each MICT, and half-maximal inhibitory concentration (IC50—where appropriate) were calculated.
Supplementary Figure 2. Tryptophan effects in culture medium on AhR activity. (A) Time-course of Trp
levels in culture media from hepatic (AZ-AHR), instestinal (LS174T) and skin (HaCaT) cells. Determined by
HPLC. (B) Induction of AhR-dependent luciferase activity in AZ-AHR cells incubated for 24 h with TCDD,
Indole and Trp in Trp/serum-free culture medium. (C) Induction of AhR-dependent luciferase activity in
AZ-AHR cells incubated for 24 h with TCDD and Indole in standard (+Trp/+FBS), serum-free (+Trp/-FBS),
Trp-free (-Trp/+FBS) and Trp/serum-free (-Trp/-FBS) culture medium. […]

[1] = read-out: fold induction of luciferase activity (efficacy)
[2] = colon HT-29 cells, wild-type, 24 h
[3] = EC50, AZ-AHR cells, 24 h, agonist analyses

| Compound | induction of CYP1A1 mRNA (CYP1A1 mRNA; [2]) | EC50 (AhR; [3]) | Efficacy (EMAX) (AhR; Table 1 summary class) | Potency (EC50) (AhR; Table 1 summary class) | other results |
| --- | --- | --- | --- | --- | --- |
| c1ccc2[nH]ccc2c1 [IND, indole] | – | – | – | – | induction of CYP1A1 mRNA (CYP1A1 mRNA): weaker inducers; Efficacy (EMAX) (AhR): high; Potency (EC50) (AhR): very low; induced luciferase activity (AhR): 500 fold; EC50 (AhR; EC50): ~1500 µM and 1480 µM; fold induction at 10000 µM (AhR; [1]): 200 to 600 |
| Clc1cc2c(cc1Cl)Oc1cc(Cl)c(Cl)cc1O2 [TCDD, 2,3,7,8-tetrachlorodibenzo-p-dioxin, reference compound] | – | – | – | – | CYP1A1 induction (CYP1A1 mRNA; AhR knock-out HT-29 variant, 24 h): nullified; induced luciferase activity (AhR; AZ-AHR cells, 24 h, Trp-free/serum-free medium): 10000 fold |
| O=C(O)/C=C/c1c[nH]c2ccccc12 [IAC, indole-3-acrylate] | strong induction | 42.3 ± 3.32 µM | medium | low | fold induction at 100 µM (AhR; [1]): 40 to 100 |
| NC(=O)Cc1c[nH]c2ccccc12 [IAD, indole-3-acetamide] | strong induction | 99.9 ± 2.86 µM | high | low | – |
| Cc1c[nH]c2ccccc12 [3MI, skatole] | weaker inducers | 103 ± 1.78 µM | medium | low | – |
| O=C(O)C(=O)Cc1c[nH]c2ccccc12 [IPY, indole-3-pyruvate] | strong induction | 98.5 ± 10.1 µM | high | low | – |
| OCCc1c[nH]c2ccccc12 [IET, indole-3-ethanol] | – | 98 ± 6.41 µM | medium | low | – |
| O=Cc1c[nH]c2ccccc12 [IA, indole-3-aldehyde] | – | 62.2 µM and 62 µM | low | low | – |
| NCCc1c[nH]c2ccccc12 [TA, tryptamine] | weaker inducers | 83.1 ± 12.7 µM | medium | low | – |
| O=C(O)C(O)Cc1c[nH]c2ccccc12 (centres unmarked) [ILA, indole-3-lactate] | – | 82 ± 17.1 µM | low | – | Potency (EC50) (AhR): low |

From PMC7177849, “Gut Microbial Catabolites of Tryptophan Are Ligands and Agonists of the Aryl Hydrocarbon Receptor: A Detailed Characterization” (International Journal of Molecular Sciences, 2020)
